In ChEMBL document CHEMBL4265888, “Discovery of super soft-drug modulators of sphingosine-1-phosphate receptor 1” (Bioorg Med Chem Lett, 2018):

Experiments:
Homo sapiens = test: Antiinflammatory activity in psoriasis patient assessed as incident of 75% reduction in psoriasis area and severity index score at 40 mg, po dosed daily during phase 2 study for 28 weeks; type: functional; set-up: scale not given: the % may be the effect or the level left
[1] = biological target: Sphingosine 1-phosphate receptor 1 (Homo sapiens, UniProt P21453); test: Inhibition of S1PR1 (unknown origin) expressed in CHOK1 cells after 90 mins by beta-arresting recuitment assay; type: functional, cell-based
[2] = Drug level in human plasma treated with (5-methyl-2-oxo-1,3-dioxol-4-yl)methyl 4-((3-(2-hydroxyphenyl)-4-oxo-2-(propylimino)thiazolidin-5-ylidene)methyl)benzoate at 37 degC; type: ADME, cell-free
[3] = Drug metabolism in human plasma assessed as formation of 4-((3(2-hydroxyphenyl)-4-oxo-2-(propylimino)thiazolidin-5-ylidene)methyl)benzoic acid at 37 degC; type: ADME, cell-free

Sphingosine 1-phosphate receptor 1, sequence (P21453 whole entry): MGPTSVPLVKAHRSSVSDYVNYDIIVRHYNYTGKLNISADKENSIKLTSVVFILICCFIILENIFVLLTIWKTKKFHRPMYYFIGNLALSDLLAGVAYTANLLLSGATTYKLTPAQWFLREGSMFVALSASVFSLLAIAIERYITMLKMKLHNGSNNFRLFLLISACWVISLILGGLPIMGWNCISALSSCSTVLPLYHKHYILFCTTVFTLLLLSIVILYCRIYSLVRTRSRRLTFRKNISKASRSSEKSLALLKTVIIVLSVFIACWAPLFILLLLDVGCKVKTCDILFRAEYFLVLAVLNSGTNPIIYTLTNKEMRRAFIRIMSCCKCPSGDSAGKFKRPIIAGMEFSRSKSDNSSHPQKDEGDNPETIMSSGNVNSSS

SMILES | Activity (Homo sapiens) [%] | IC50 [1] [nM] | Drug metabolism [2] | Drug metabolism [3]
CCC/N=C1\S/C(=C\c2ccc(OC[C@H](O)CO)c(Cl)c2)C(=O)N1c1ccccc1C [PONESIMOD] | 77 |  |  | 
CCC/N=C1\S/C(=C\c2ccc(C(=O)O)cc2)C(=O)N1c1ccccc1O |  | > 1000 | Metabolite_Notdetected | 
CCC/N=C1\S/C(=C\c2ccc(C(=O)OCc3oc(=O)oc3C)cc2)C(=O)N1c1ccccc1O |  | > 1000 |  | Metabolite_Detected
